We go through eight compounds from patent publication US12179400B2, “Multiple-matrix monolithic moulded part for the diffusion of active ingredients and method for obtaining same” (AB7 Innovation S.A.S.U., priority 2017, dated 2024).

Molecules are shown by their SMILES.

Common to all, as to format: physicochemical
The nature of data set [1]: GPC assay of active ingredients (repellent tracers) in EVA collars at T0 after injection and after 7 days of stability at 50° C. Conditions: for cumulative loss: collar (C1), T0 loss plus loss after 7 days at 50° C.; for Active ingredient loss (%): EVA. The procedure: In a 1 L beaker, 200 g of vitamin F, 160 g of Mentha pulegium essential oil, 31.2 g of eucalyptus essential oil, 8 g of lemongrass essential oil and 0.8 g of geraniol are mixed. The mixture is stirred lightly until a homogeneous liquid mixture is obtained.
3519.2 g of EVA are introduced into a cylindrical mixer preheated to 70° C. Then, the above homogeneous liquid mixture is slowly introduced. The mixture is left to be stirred gently until dry granules are obtained. 80 g of pistachio green dye are added and then mixed for 5 minutes. A compound is obtained consisting of EVA polymers loaded with 11.1% by weight of all the active ingredients combined, or 5.5% by weight of vitamin F and 5.6% by weight of repellents.
The above compound is injected into a collar 60 cm long by 1 cm wide and weighing 25 g.
The collars (C1) thus obtained were analyzed by GPC assay of the active ingredients contained in the matrix at time zero (T0) after injection, then after 7 days of stability at 50° C. in watertight-sealed packaging.
In parallel, by proceeding according to the same protocol, vitamin F was replaced by coconut oil, in the same proportions, then the corresponding collar compound (C2) was injected. The analyses by GPC assay of the collars (C2) gave the results recorded in Table 2. […]

The nature of data set [2]: In vitro release profile in plant oil from antiparasitic TPU (EPAMOULD) collar. Conditions: for release profile: bi-injected collar: one matrix 8% permethrin in 5% SANTICIZER 141, other matrix 4% deltamethrin in 22% SANTICIZER 141; for amount released after 15 days: single EPAMOULD matrix with 8% permethrin and 4% deltamethrin, both in 22% SANTICIZER 141. How it is done:
8% permethrin is solubilized in 22% of SANTICIZER 141® Then, 4% deltamethrin is added, before adding the homogeneous mixture in a single EPAMOULD® matrix.
FIG. 3: In vitro release profile in the plant oil from the pest control collar containing 8% permethrin and 4% deltamethrin, both solubilized in 22% SANTICIZER 141®
Therefore, the same amount (8%) of permethrin was solubilized in 5% SANTICIZER® 141 prior to incorporation into a EPAMOULD® matrix as above, in order to obtain a permethrin compound. In parallel, the same quantity of deltamethrin (4%) solubilized in 22% of SANTICIZER® 141 was mixed, prior to incorporation into a EPAMOULD® matrix, in order to obtain a deltamethrin compound.
The two compounds obtained are injected simultaneously in a collar using the bi-injection press as described in Example 1.
FIG. 4: In vitro release profile in plant oil of the antiparasitic collar obtained by bi-injection including a matrix containing 8% of permethrin solubilized in 5% of SANTICIZER 141® and the other matrix containing 4% of deltamethrin dissolved in 22% of SANTICIZER 141®.

Data set [3] is described as follows: Release profile at room temperature of active ingredient incorporated at 10% into polymer matrix bracelets. To be noted: for release profile: 10% loading. How it is done: Studies carried out by the inventors have made it possible to prepare the release profiles of limonene as a function of the polymers used, namely PEBA, EVA and the bio-based polyethylene (PE) copolymer. Compounds loaded with 10% limonene were injected in a bracelet.
FIG. 1: release profile at room temperature of limonene incorporated at 10% into different polymer matrices.
10% essential oil of Eucalyptus radiata has been incorporated into an EVA polymer matrix.
FIG. 2: release profile at room temperature of Eucalyptus radiata essential oil incorporated at 10% into an EVA matrix

The mark [4] stands for this setting: collars (C1), 5.5% Vitamin F and 5.6% repellents, at T0 after injection.
[5] abbreviates: collars (C1), 5.5% Vitamin F and 5.6% repellents, at T = 7 days at 50° C., watertight-sealed packaging.
[6] abbreviates: collars (C2), 5.5% coconut and 5.6% repellents, at T0 after injection.
Where [7] appears, read: collars (C2), 5.5% coconut and 5.6% repellents, at T = 7 days at 50° C.
Setting [8] is: PEBA bracelet loaded with 10% limonene.

On to `CC12CCC(CC1)C(C)(C)O2` [Cineole], for which the cumulative loss in data set [1] is listed as 16%. Moreover, the “Active ingredient loss (%)” value in data set [1] (setting [4]) was 12%; in data set [1] (collars (C1), 5.5% Vitamin F and 5.6% repellents, at T0 after injection, listed as cineole) it was 12%; in data set [1] (setting [5]), 4%; in data set [1] (collars (C1), 5.5% Vitamin F and 5.6% repellents, at T = 7 days at 50° C., watertight-sealed packaging, listed as cineole) it was 4%; in data set [1] (setting [6]), 0%; in data set [1] (setting [7]) it was 0%.

On to `CC(C)=CCCC(C)CC=O` (centres unmarked) [Citronellal], for which, in data set [1], the cumulative loss is reported as 50%. For the same compound, the “Active ingredient loss (%)” value in data set [1] (setting [4]) was determined as 12%; in data set [1] (collars (C1), 5.5% Vitamin F and 5.6% repellents, at T0 after injection, listed as citronellal), 12%; in data set [1] (setting [5]) it was 38%; in data set [1] (collars (C1), 5.5% Vitamin F and 5.6% repellents, at T = 7 days at 50° C., watertight-sealed packaging, listed as citronellal), 38%; in data set [1] (setting [6]) it was 0%; in data set [1] (setting [7]), 3%. For the same compound, the “Active ingredient loss (%)” value in data set [1] (collars (C2), 5.5% coconut and 5.6% repellents, at T = 7 days at 50° C., listed as citronellal) was found to be 3%.

For the compound `CC(C)=CCCC(C)CCO` (centres unmarked) [Citronellol], in data set [1], the cumulative loss worked out at 27%. For the same compound, the “Active ingredient loss (%)” value in data set [1] (setting [4]) came out at 7%; in data set [1] (collars (C1), 5.5% Vitamin F and 5.6% repellents, at T0 after injection, listed as citronellol), 7%; in data set [1] (setting [5]), 20%; in data set [1] (collars (C1), 5.5% Vitamin F and 5.6% repellents, at T = 7 days at 50° C., watertight-sealed packaging, listed as citronellol), 20%; in data set [1] (setting [6]), 3%; in data set [1] (collars (C2), 5.5% coconut and 5.6% repellents, at T0 after injection, listed as citronellol) it was 3%. In data set [1] (setting [7]), the “Active ingredient loss (%)” value stood at 0%.

As for `CC(C)=CCC/C(C)=C/CO` [Geraniol, geraniol], the cumulative loss in data set [1] turned out to be 36%. Further, the “Active ingredient loss (%)” value in data set [1] (setting [4]) worked out at 6%; in data set [1] (collars (C1), 5.5% Vitamin F and 5.6% repellents, at T0 after injection, listed as geraniol) it was 6%; in data set [1] (setting [5]), 30%; in data set [1] (collars (C1), 5.5% Vitamin F and 5.6% repellents, at T = 7 days at 50° C., watertight-sealed packaging, listed as geraniol), 30%; in data set [1] (setting [6]) it was 0%; in data set [1] (setting [7]), 0%.

With `CC(C)=C1CC[C@@H](C)CC1=O` [Pulegone], the “Active ingredient loss (%)” value is recorded as 11% in data set [1] (setting [4]), 10% in data set [1] (setting [5]), 0% in data set [1] (setting [6]) and 0% in data set [1] (setting [7]).

Turning to `CC1(C)[C@H](C(=O)O[C@H](C#N)c2cccc(Oc3ccccc3)c2)[C@@H]1C=C(Br)Br` [deltamethrin], in data set [2], the “release profile” value was “substantially similar release profile” and the “amount released after 15 days” value is on record as 18%.

Consider `C=C(C)[C@H]1CC=C(C)CC1` [limonene, Limonene], for which the “release profile” value was “releases gradually” in data set [3] (EVA matrix); “very quickly and in a significant quantity” in data set [3] (PEBA bracelet); “retains” in data set [3] (bio-based polyethylene (PE) copolymer bracelet). In addition, the “amount released after 2 days” value in data set [3] (setting [8]) was 70%. In addition, the “time until bracelet empty” value in data set [3] (setting [8]) is listed as 6 days. The “remaining amount after 10 days” value in data set [3] (incorporated at 10% into EVA matrix) is recorded as 42%.

With `CC1(C)C(C=C(Cl)Cl)C1C(=O)OCc1cccc(Oc2ccccc2)c1` (centres unmarked) [permethrin], in data set [2], the “release profile” value is given as “substantially similar release profile” and the “amount released after 15 days” value was 52%.
